Here are results for nine molecules from patent US10004701B2, “Methods and compositions for treating infection” (UNIVERSITY OF ROCHESTER, priority 2012, dated 2018).

Holding throughout (test): AK assay 384-well format, Prestwick library screening
The test system of experiment [1] is S. aureus strain USA300-0114. It is filed as cell-based, Staphylococcus aureus. Conditions: for fold induction at 50 µM: Staphylococcus aureus, USA300, 3 h, 50 μM final drug concentration.
Experiment [2] relates to A. baumannii strain 98-37-09. It is filed as cell-based, Acinetobacter baumannii. Conditions: for fold induction at 50 µM: Acinetobacter baumannii, 983709, 3 h, 50 μM final drug concentration.
For a further experiment, the system named is E. faecium. It is filed as cell-based, Enterococcus faecium. To be noted: for fold induction at 50 µM: Enterococcus faecium, 3 h, 50 μM final drug concentration.
The next experiment concerns E. cloacae. It is filed as cell-based, Enterobacter cloacae. Conditions: for fold induction at 50 µM: Enterobacter cloacae, 3 h, 50 μM final drug concentration.
The subject of the next experiment is K. pneumoniae. It is filed as cell-based, Klebsiella pneumoniae. To be noted: for fold induction at 50 µM: Klebsiella pneumoniae, 3 h, 50 μM final drug concentration.
A further experiment has as its system E. coli. Format: cell-based, Escherichia coli. To be noted: for fold induction at 50 µM: Escherichia coli, 3 h, 50 μM final drug concentration.
Another experiment deals with P. aeruginosa. It is filed as cell-based, Pseudomonas aeruginosa. Conditions: for fold induction at 50 µM: Pseudomonas aeruginosa, 3 h, 50 μM final drug concentration.
Where [3] appears, read: cutoff for positive-scoring molecules 3-fold increase, read-out: AK-based Prestwick Library Screening Results, S. aureus (fold increase in extracellular AK activity).
[4] abbreviates: cutoff for positive-scoring molecules 3-fold increase, read-out: AK-based Prestwick Library Screening Results, A. baumannii (fold increase in extracellular AK activity).
Where [5] appears, read: cutoff for positive-scoring molecules 3-fold increase, read-out: AK-based Prestwick Library Screening Results, E. faecium (fold increase in extracellular AK activity).
[6] abbreviates: cutoff for positive-scoring molecules 3-fold increase, read-out: AK-based Prestwick Library Screening Results, E. cloacae (fold increase in extracellular AK activity).
[7] abbreviates: cutoff for positive-scoring molecules 3-fold increase, read-out: AK-based Prestwick Library Screening Results, K. pneumoniae (fold increase in extracellular AK activity).
Setting [8] is: cutoff for positive-scoring molecules 3-fold increase, read-out: AK-based Prestwick Library Screening Results, E. coli (fold increase in extracellular AK activity).
Setting [9] is: cutoff for positive-scoring molecules 3-fold increase, read-out: AK-based Prestwick Library Screening Results, P. aeruginosa (fold increase in extracellular AK activity).
The mark [10] stands for this setting: planktonic, cutoff for positive-scoring molecules 3-fold increase, read-out: AK-based Prestwick Library Screening Results, S. aureus (fold increase in extracellular AK activity).
The mark [11] stands for this setting: planktonic, cutoff for positive-scoring molecules 3-fold increase, read-out: AK-based Prestwick Library Screening Results, A. baumannii (fold increase in extracellular AK activity).
Setting [12] is: planktonic, cutoff for positive-scoring molecules 3-fold increase, read-out: AK-based Prestwick Library Screening Results, E. faecium (fold increase in extracellular AK activity).
Where [13] appears, read: planktonic, cutoff for positive-scoring molecules 3-fold increase, read-out: AK-based Prestwick Library Screening Results, E. cloacae (fold increase in extracellular AK activity).
[14] abbreviates: planktonic, cutoff for positive-scoring molecules 3-fold increase, read-out: AK-based Prestwick Library Screening Results, K. pneumoniae (fold increase in extracellular AK activity).
The mark [15] stands for this setting: planktonic, cutoff for positive-scoring molecules 3-fold increase, read-out: AK-based Prestwick Library Screening Results, E. coli (fold increase in extracellular AK activity).
The mark [16] stands for this setting: planktonic, cutoff for positive-scoring molecules 3-fold increase, read-out: AK-based Prestwick Library Screening Results, P. aeruginosa (fold increase in extracellular AK activity).
Where [17] appears, read: planktonic, cutoff for positive 3-fold increase, read-out: AK-based Prestwick Library Screening Results, S. aureus (fold increase in extracellular AK activity).
Setting [18] is: planktonic, cutoff for positive 3-fold increase, read-out: AK-based Prestwick Library Screening Results, A. baumannii (fold increase in extracellular AK activity).
Where [19] appears, read: planktonic, cutoff for positive 3-fold increase, read-out: AK-based Prestwick Library Screening Results, E. faecium (fold increase in extracellular AK activity).
[20] abbreviates: planktonic, cutoff for positive 3-fold increase, read-out: AK-based Prestwick Library Screening Results, E. cloacae (fold increase in extracellular AK activity).
Setting [21] is: planktonic, cutoff for positive 3-fold increase, read-out: AK-based Prestwick Library Screening Results, K. pneumoniae (fold increase in extracellular AK activity).
The mark [22] stands for this setting: planktonic, cutoff for positive 3-fold increase, read-out: AK-based Prestwick Library Screening Results, E. coli (fold increase in extracellular AK activity).
Setting [23] is: planktonic, cutoff for positive 3-fold increase, read-out: AK-based Prestwick Library Screening Results, P. aeruginosa (fold increase in extracellular AK activity).

Structures can show the parent of a compound that is named as a salt. Where two headings read alike, the source gives them in different places.

With `COc1ccc(-c2cc(=O)c3c(O)cc(O)cc3o2)cc1` [Acacetin], the fold induction at 50 µM came to 0.7 in experiment [1] (setting [3]); 0.3 in experiment [2] (setting [4]); 0.5 in the experiment with E. faecium (setting [5]); 1.6 in the experiment on E. cloacae (setting [6]); 0.6 with K. pneumoniae (setting [7]); 0.7 with E. coli (setting [8]). For the same molecule, in the experiment with P. aeruginosa (setting [9]), the fold induction at 50 µM was determined as 0.6.
`Oc1ccc(OCc2ccccc2)cc1` [Monobenzone]: the fold induction at 50 µM in experiment [1] (setting [10]) came to 0.6; in experiment [2] (setting [11]), 0.5; in the experiment with E. faecium (setting [12]), 0.6; with E. cloacae (setting [13]) it was 1.4; in the experiment with K. pneumoniae (setting [14]), 0.5; with E. coli (setting [15]) it was 0.7. For the same molecule, the fold induction at 50 µM with P. aeruginosa (setting [16]) was found to be 0.7.
`CN[C@@H]1[C@@H](O[C@H]2O[C@H](CO)[C@@H](N)[C@H](O)[C@H]2O)OC2C[C@@H](N)[C@@H](O[C@H]3[C@H](O)[C@@H](O)[C@H](N)C[C@@H]3N)OC2[C@@H]1O` (stereo partly drawn) [Apramycin]: the fold induction at 50 µM in experiment [1] (planktonic S. aureus, positive cutoff 3-fold increase, read-out: AK-based Prestwick library screening result, S. aureus (fold increase in extracellular AK activity)) stood at 0.9; in experiment [2] (planktonic A. baumannii, positive cutoff 3-fold increase, read-out: AK-based Prestwick library screening result, A. baumannii (fold increase in extracellular AK activity)), 1; with E. faecium (planktonic E. faecium, positive cutoff 3-fold increase, read-out: AK-based Prestwick library screening result, E. faecium (fold increase in extracellular AK activity)), 1; in the experiment with E. cloacae (planktonic E. cloacae, positive cutoff 3-fold increase, read-out: AK-based Prestwick library screening result, E. cloacae (fold increase in extracellular AK activity)), 1.4; in the experiment with K. pneumoniae (planktonic K. pneumoniae, positive cutoff 3-fold increase, read-out: AK-based Prestwick library screening result, K. pneumoniae (fold increase in extracellular AK activity)), 0.8; with E. coli (planktonic E. coli, positive cutoff 3-fold increase, read-out: AK-based Prestwick library screening result, E. coli (fold increase in extracellular AK activity)) it was 1.2. For the same molecule, the fold induction at 50 µM with P. aeruginosa (planktonic P. aeruginosa, positive cutoff 3-fold increase, read-out: AK-based Prestwick library screening result, P. aeruginosa (fold increase in extracellular AK activity)) was 1.1.
In the case of `COc1ccc2cc1Oc1ccc(cc1)C[C@H]1c3cc(c(OC)cc3CCN1C)Oc1c(OC)c(OC)cc3c1[C@H](C2)N(C)CC3` [Tetrandrine], the fold induction at 50 µM was determined as 0.9 in experiment [1] (setting [10]); 0.9 in experiment [2] (setting [11]); 1 in the experiment with E. faecium (setting [12]); 1.1 with E. cloacae (setting [13]); 0.9 in the experiment on K. pneumoniae (setting [14]); 0.9 in the experiment on E. coli (setting [15]). Moreover, the fold induction at 50 µM in the experiment with P. aeruginosa (setting [16]) was found to be 0.9.
With `C[C@]12CC[C@@H](O)C[C@H]1CC[C@@H]1[C@@H]2CC[C@]2(C)C(=O)CC[C@@H]12`, the “AK-based Prestwick Library Screening Results, S. aureus (fold increase in extracellular AK activity)” value in experiment [1] worked out at 1.0. For the same molecule, the “AK-based Prestwick Library Screening Results, A. baumannii (fold increase in extracellular AK activity)” value in experiment [2] was determined as 0.9. Besides, the “AK-based Prestwick Library Screening Results, E. faecium (fold increase in extracellular AK activity)” value in the experiment on E. faecium came to 1.0. Further, in the experiment with E. cloacae, the “AK-based Prestwick Library Screening Results, E. cloacae (fold increase in extracellular AK activity)” value came out at 1.9. The “AK-based Prestwick Library Screening Results, K. pneumoniae (fold increase in extracellular AK activity)” value with K. pneumoniae is 0.9. The “AK-based Prestwick Library Screening Results, E. coli (fold increase in extracellular AK activity)” value with E. coli worked out at 1.2. The “AK-based Prestwick Library Screening Results, P. aeruginosa (fold increase in extracellular AK activity)” value in the experiment with P. aeruginosa was 1.1.
In the case of `C[C@H](CCC(=O)NCC(=O)O)[C@H]1CC[C@H]2[C@@H]3[C@H](O)C[C@@H]4C[C@H](O)CC[C@]4(C)[C@H]3C[C@H](O)[C@]12C` [Glycocholic acid], the fold induction at 50 µM was 1.2 in experiment [1] (setting [17]); 1.1 in experiment [2] (setting [18]); 1.1 in the experiment on E. faecium (setting [19]); 1.4 in the experiment on E. cloacae (setting [20]); 1 in the experiment on K. pneumoniae (setting [21]); 1.1 in the experiment on E. coli (setting [22]). The fold induction at 50 µM in the experiment on P. aeruginosa (setting [23]) came to 1.1.
As for `Nc1c(Br)cc(Br)cc1CN[C@H]1CC[C@H](O)CC1` [Ambroxol hydrochloride], the fold induction at 50 µM in experiment [1] (planktonic S. aureus, cutoff for positive-scoring molecules 3-fold increase, read-out: AK-based Prestwick Library Screening Results, S. aureus (increase in extracellular AK activity)) stood at 1; in experiment [2] (planktonic A. baumannii, cutoff for positive-scoring molecules 3-fold increase, read-out: AK-based Prestwick Library Screening Results, A. baumannii (increase in extracellular AK activity)), 1.2; in the experiment with E. faecium (planktonic E. faecium, cutoff for positive-scoring molecules 3-fold increase, read-out: AK-based Prestwick Library Screening Results, E. faecium (increase in extracellular AK activity)) it was 1; in the experiment on E. cloacae (planktonic E. cloacae, cutoff for positive-scoring molecules 3-fold increase, read-out: AK-based Prestwick Library Screening Results, E. cloacae (increase in extracellular AK activity)), 1.5; with K. pneumoniae (planktonic K. pneumoniae, cutoff for positive-scoring molecules 3-fold increase, read-out: AK-based Prestwick Library Screening Results, K. pneumoniae (increase in extracellular AK activity)), 1; in the experiment on E. coli (planktonic E. coli, cutoff for positive-scoring molecules 3-fold increase, read-out: AK-based Prestwick Library Screening Results, E. coli (increase in extracellular AK activity)), 1. The fold induction at 50 µM with P. aeruginosa (planktonic P. aeruginosa, cutoff for positive-scoring molecules 3-fold increase, read-out: AK-based Prestwick Library Screening Results, P. aeruginosa (increase in extracellular AK activity)) is 1.2.
Take `COc1ccc2[nH]cc(CCNC(C)=O)c2c1` [Melatonin]: the fold induction at 50 µM in experiment [1] (setting [17]) turned out to be 1.3; in experiment [2] (setting [18]), 1.2; in the experiment on E. faecium (setting [19]) it was 1; in the experiment with E. cloacae (setting [20]), 1.4; in the experiment with K. pneumoniae (setting [21]), 0.8; with E. coli (setting [22]) it was 0.9. Besides, the fold induction at 50 µM in the experiment on P. aeruginosa (setting [23]) stood at 1.1.
For the molecule `C[N+](C)(C)CCCCCCCCCC[N+](C)(C)C` [Decamethonium bromide], the fold induction at 50 µM in experiment [1] (setting [3]) amounted to 0.4; in experiment [2] (setting [4]), 0.5; in the experiment with E. faecium (setting [5]), 0.9; in the experiment on E. cloacae (setting [6]), 0.5; in the experiment on K. pneumoniae (setting [7]), 0.5; in the experiment on E. coli (setting [8]), 0.5. For the same molecule, the fold induction at 50 µM with P. aeruginosa (setting [9]) came to 0.4.
